Data published in US4101536A, “Muramyldipeptide derivatives and process for the preparation thereof” (Daiichi Seiyaku Co., Ltd., priority 1976, dated 1978).
Values joined by “and” are separate entries in the source; they are usually repeats but may differ in a detail not shown here. Identical values can stand only once.

Key:
[1] = system: Hartley guinea pigs; experiment: Adjuvant activity on the induction of delayed-type hypersensitivity to ABA-Tyr (skin test); assay type: in vivo, guinea pig; details: with 50 μg ABA-Tyr in Freund's incomplete adjuvant, four footpads, skin test two weeks later, mm ± SE
Method: Adjuvant activity of the object compound on the induction of delayed-type hypersensitivity to ABA-Tyr.
Hartley guinea pigs were immunized into four footpads with 50 μg of N-acetyl-L-tyrosine-3-azobenzene-4'-arsonic acid (ABA-Tyr) in Freund's incomplete adjuvant with a test material dissolved or suspended in phosphate buffered saline. Control groups were immunized with ABA-Tyr alone in Freund's incomplete adjuvant.
Two weeks later, skin test with 100 μg of ABA-bacterial α-amylose (ABA-BαA) dissolved in saline was made and skin reaction was measured 24 hours after intradermal injection of test antigen.

[2] = system: mastocytoma P815-X2 cells; experiment: Adjuvant activity on the induction of cell-mediated cytotoxic cells in the spleen of allogenic mice (Brunner's method); assay type: in vivo, C57BL/6J mice; details: phosphate buffered saline suspension, eleven days after
Method: Adjuvant activity on the induction of cell-mediated cytotoxic cells in the spleen of allogenic mice (C57BL/6J).
Three or four mice of C57BL/6J in each group were immunized intraperitoneally with a mixture of mastocytoma P815-X2 cells (1 × 10^4) and a test material dissolved or suspended in phosphate buffered saline. Control group was immunized with mastocytoma P815-X2 cells alone.
Eleven days after, cell-mediated cytotoxicity was determined by Brunner's method (Immunology 18, 501-515 1970).

[3] = system: MH134 hepatoma; experiment: Antitumor activity on the suppression of MH-134 hepatoma; assay type: in vivo, C3H/He mice; details: intradermal, A = mice with tumor growth completely suppressed, B = tested mice
Method: Antitumor activity on the suppression of MH-134 hepatoma in C3H/He mice
The antitumor activity of the compounds of this invention was examined by using MH134 hepatoma in syngeneic C3H/He mice. A mixture of tumor cells of MH134 (1 × 10^5) and materials (100 or 20 μg) dissolved or suspended in phosphate buffered saline and transplanted intradermally into C3H/He mice and the tumor growth was measured in inoculated sites.

[4] = system: mastocytoma P815-X2 cells; details: immunization with allogeneic antigen, mastocytoma P815-X2 cell in vivo; prior-art statement; cited from earlier work
[5] = system: MH134 hepatoma; details: MH134 hepatoma in C3H/He; prior-art statement; cited from earlier work
[6] = system: melanoma B16; details: melanoma B16 in C57BL/6J; prior-art statement; cited from earlier work
[7] = system: ovalmin protein antigen; details: increased serum antibody levels and induction of delayed-type hypersensitivity; prior-art statement; cited from earlier work
[8] = dose 10 μg/mice i.p. with P815-X2 cells (1 × 10^4)
[9] = dose 100 μg/mice i.p. with P815-X2 cells (1 × 10^4)
[10] = dose 20 μg mixed with MH134 cells (1 × 10^5)
[11] = dose 100 μg mixed with MH134 cells (1 × 10^5)

| Compound | Skin reaction with 100μg of ABA-BαA at 24 hrs. ([1]; dose 30 μg) | Skin reaction with 100μg of ABA-BαA at 24 hrs. ([1]; dose 300 μg) | Specific Target Cell Lysis [2, 8] | Specific Target Cell Lysis [2, 9] | Antitumor Activity A/B Tumor Growth [3, 10] | Skin reaction with 100μg of ABA-BαA at 24 hrs. ([1]; dose 50 μg) | Skin reaction with 100μg of ABA-BαA at 24 hrs. ([1]; dose 500 μg) | Antitumor Activity A/B Tumor Growth [3, 11] | Skin reaction with 100μg of ABA-BαA at 24 hrs. ([1]; dose 40 μg) | Skin reaction with 100μg of ABA-BαA at 24 hrs. ([1]; dose 400 μg) | Skin reaction with 100μg of ABA-BαA at 24 hrs. ([1]; dose 100 μg) | adjuvant activity in the generation of cell-mediated cytotoxic effector cells on the spleen [4] | antitumor activity on syngeneic mouse tumor system [5] | antitumor activity on syngeneic mouse tumor system [6] | immunoadjuvant activity [7] |
| --- | --- | --- | --- | --- | --- | --- | --- | --- | --- | --- | --- | --- | --- | --- | --- |
| 6-O-corynomycoloyl-N-acetylmuramyl-L-alanyl-D-isoglutamine [Coryno-L-Ala-D-isoGln] | 21.2 ± 1.9 mm | 22.0 ± 0.6 mm | 16.1 ± 5.0% | 28.8 ± 14.4% | 6/10 | – | – | – | – | – | – | – | – | – | – |
| 6-O-mycomycoloyl-N-acetylmuramyl-L-alanyl-D-isoglutamine [Myco-L-Ala-D-isoGln] | – | – | 3.9% | 69.7% | – | 22.8 ± 0.6 mm and 12.8 ± 1.6 mm | 20.9 ± 0.8 mm and 17.1 ± 0.5 mm | 10/10 | – | – | – | – | – | – | – |
| 6-O-mycomycoloyl-N-acetylmuramyl-L-ser-D-isoglutamine [Myco-L-Ser-D-isoGln] | – | – | 21.8 ± 15.2% | 30.4 ± 14.0% | – | 18.0 ± 0.6 mm | 15.0 ± 0.5 mm | 10/10 | – | – | – | – | – | – | – |
| 6-O-mycomycoloyl-N-acetylmuramyl-glycyl-D-isoglutamine [Myco-Gly-D-isoGln] | – | – | 39.3 ± 3.2% | 77.0 ± 4.0% | – | 2.7 ± 0.7 mm | 15.3 ± 0.6 mm | 7/10 | – | – | – | – | – | – | – |
| 6-O-nocardomycoloyl-N-acetylmuramyl-L-alanyl-D-isoglutamine [Nocardo-L-Ala-D-isoGln] | – | – | 21.0 ± 7.6% | 76.9 ± 3.2% | 5/10 | – | – | – | 24.5 ± 0.7 mm | 23.0 ± 1.5 mm | – | – | – | – | – |
| CCCCCCCCCCCCCCCCCC(=O)OCC1OC(O)C(NC(C)=O)C(OC(C)C(=O)NC(C)C(=O)NC(CCC(=O)O)C(N)=O)C1O (stereo not drawn) [Stearoyl-muramyldipeptide, 6-O-stearoyl-muramyldipeptide, reference compound] | – | – | – | 4.2% | 0/10 | – | – | 0/10 | – | – | 17.2 ± 1.2 mm | no adjuvant activity | no antitumor activity | no antitumor activity | immunological properties almost similar to those of muramyldipeptide |
